Laboratory results reported in the supplement of paper PMC10307832.

What was measured:
Test in all cases: relative viability (nuclei count vs DMSO), 5 days (fraction); higher = more cells survive
BEN = system: BEN
Procedure, shortened: (§1)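 Nuclei were stained with Hoechst during a one-step fixation (final 0.05% Triton X-100, 1% formaldehyde, 1 ug/ml Hoechst) carried out 5 days after dosing, then counted on 4× images. The cells, lung cancer lines in 1536-well plates, had been dosed by pin tool the day after seeding with one drug alone or a fixed anchor-drug dose plus five library-drug doses (not always all listed) in √10 steps. Relative viability is the nuclei count in treated wells divided by that in vehicle wells, and each value is the median of duplicate plates.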

CAL-12T = system: CAL-12T
Procedure, shortened: as §1

COR-L23 = system: COR-L23
Procedure, shortened: as §1

HCC-366 = system: HCC-366
Procedure, shortened: as §1

LOU-NH91 = system: LOU-NH91
Procedure, shortened: as §1

LU99A = system: LU99A
Procedure, shortened: as §1

NCI-H1355 = system: NCI-H1355
Procedure, shortened: as §1

NCI-H1437 = system: NCI-H1437
Procedure, shortened: as §1

NCI-H1563 = system: NCI-H1563
Procedure, shortened: as §1

NCI-H1650 = system: NCI-H1650
Procedure, shortened: as §1

NCI-H1651 = system: NCI-H1651
Procedure, shortened: as §1

For `Cc1sc2c(c1C)C(c1ccc(Cl)cc1)=N[C@@H](CC(=O)OC(C)(C)C)c1nnc(C)n1-2` [JQ1] + N=C(N)NC(=N)NCCc1ccccc1 [Phenformin] (partner 250 µM), the relative viability (BEN; first compound 0.04 µM) was 0.273, the relative viability (BEN; first compound 0.1265 µM) was 0.296 and the relative viability (BEN; first compound 0.4 µM) was 0.303. The relative viability (BEN; first compound 1.265 µM) was 0.309, the relative viability (BEN; first compound 4 µM) was 0.215 and the relative viability (CAL-12T; first compound 0.04 µM) was 0.522. The relative viability (CAL-12T; first compound 0.1265 µM) was 0.443, the relative viability (CAL-12T; first compound 0.4 µM) was 0.42 and the relative viability (CAL-12T; first compound 1.265 µM) was 0.253. It also gave a relative viability (CAL-12T; first compound 4 µM) of 0.284, a relative viability (COR-L23; first compound 0.04 µM) of 0.385 and a relative viability (COR-L23; first compound 0.1265 µM) of 0.351. For the same molecule, the relative viability (COR-L23; first compound 0.4 µM) was 0.428, the relative viability (COR-L23; first compound 1.265 µM) was 0.222 and the relative viability (COR-L23; first compound 4 µM) was 0.227. The relative viability (HCC-366; first compound 0.04 µM) was 0.699, the relative viability (HCC-366; first compound 0.4 µM) was 0.614 and the relative viability (HCC-366; first compound 1.265 µM) was 0.412. It also gave a relative viability (HCC-366; first compound 4 µM) of 0.376, a relative viability (LOU-NH91; first compound 0.04 µM) of 0.735 and a relative viability (LOU-NH91; first compound 0.1265 µM) of 0.555. For the same molecule, the relative viability (LOU-NH91; first compound 0.4 µM) was 0.384, the relative viability (LOU-NH91; first compound 1.265 µM) was 0.328 and the relative viability (LOU-NH91; first compound 4 µM) was 0.326. It also gave a relative viability (LU99A; first compound 0.04 µM) of 0.776, a relative viability (LU99A; first compound 0.1265 µM) of 0.35 and a relative viability (LU99A; first compound 0.4 µM) of 0.734. It also gave a relative viability (LU99A; first compound 1.265 µM) of 0.303, a relative viability (LU99A; first compound 4 µM) of 0.26 and a relative viability (NCI-H1355; first compound 0.04 µM) of 0.45. For the same molecule, the relative viability (NCI-H1355; first compound 0.1265 µM) was 0.473, the relative viability (NCI-H1355; first compound 0.4 µM) was 0.433 and the relative viability (NCI-H1355; first compound 1.265 µM) was 0.388. For the same molecule, the relative viability (NCI-H1355; first compound 4 µM) was 0.326, the relative viability (NCI-H1437; first compound 0.04 µM) was 0.274 and the relative viability (NCI-H1437; first compound 0.1265 µM) was 0.267. The relative viability (NCI-H1437; first compound 0.4 µM) was 0.279, the relative viability (NCI-H1437; first compound 1.265 µM) was 0.222 and the relative viability (NCI-H1437; first compound 4 µM) was 0.271. For the same molecule, the relative viability (NCI-H1563; first compound 0.04 µM) was 0.672, the relative viability (NCI-H1563; first compound 0.1265 µM) was 0.571 and the relative viability (NCI-H1563; first compound 0.4 µM) was 0.682. It also gave a relative viability (NCI-H1563; first compound 1.265 µM) of 0.596, a relative viability (NCI-H1563; first compound 4 µM) of 0.568 and a relative viability (NCI-H1650; first compound 0.04 µM) of 0.309. For the same molecule, the relative viability (NCI-H1650; first compound 0.1265 µM) was 0.304, the relative viability (NCI-H1650; first compound 0.4 µM) was 0.182 and the relative viability (NCI-H1650; first compound 1.265 µM) was 0.118. It also gave a relative viability (NCI-H1650; first compound 4 µM) of 0.137, a relative viability (NCI-H1651; first compound 0.04 µM) of 0.265 and a relative viability (NCI-H1651; first compound 0.1265 µM) of 0.249. It also gave a relative viability (NCI-H1651; first compound 0.4 µM) of 0.305, a relative viability (NCI-H1651; first compound 1.265 µM) of 0.245 and a relative viability (NCI-H1651; first compound 4 µM) of 0.241.
